Consider one compound from article PMC7179167 (Molecules, 2020).

Assay [1] deals with P. aeruginosa (ATCC 27853). In words: Disk diffusion antimicrobial test, P. aeruginosa. It is filed as cell-based, Pseudomonas areuginosa. Particulars: Pseudomonas aeruginosa, ATCC27853, Gram-negative, 20 mg per disc (title), concentration 20 µg (footnote). As to the method:
(§1) The newly synthesized compounds were chosen to be evaluated in vitro towards a variety of pathogenic microorganisms; Gram-positive bacteria: S. aureus (ATCC 6538) and B. subtilis (ATCC 6633); Gram-negative bacteria: P. areuginosa (ATCC 27853) and E. coli (DSMZ 1058); yeast: C. albicans (ATCC 10231) and S. cerevisiae (ATCC 9080) and fungi: A. niger (NRRL A-326) using the disk diffusion method at a single dose of 20 µl. The results are shown in Table 1 as the growth inhibition zone (mm).
The antimicrobial activity of target compounds were evaluated to be in vitro against a variety of pathogenic microorganisms, namely Staphylococcus aureus (ATCC 6538), Bacillus subtilis (ATCC 6633) (Gram-positive bacteria), Pseudomonas areuginosa (ATCC 27853), Escherichia coli (DSMZ 1058) (Gram-negative bacteria), Candida albicans (ATCC 10231), Saccharomyces cerevisiae (ATCC 9080) (Yeast) and Aspergillus niger (NRRL A-326) (Fungi) using the disk diffusion method at a single dose of 20 µg. The microorganisms were served and obtained from the Microbial Biotechnology Department, National Research Center, Giza, Egypt. Amphotericin, amoxicillin and ciprofloxacin were used as reference drugs (Oxoid™ Disks). The tested compounds 11a–c, 12a–c, 13a–i, 14a–i and 15a,b were dissolved in dimethylsulphoxide (DMSO) at a concentration of 1 mg/mL. Aliquots of 20 μl were soaked on filter paper discs (6 mm) and dried at room temperature under sterilized conditions. The paper discs were placed on inoculated agar plats and then incubated for 24 h at 37 °C for bacterial strains and after 48–72 h incubation at 30 °C for fungi. Both bacterial and yeast strains were grown on nutrient agar medium (g/l): beef extract, 3; peptone, 10 and agar, 20 at pH of 7.2. The fungal strain was grown on Czapek-Dox medium (g/l): sucrose, 30; NaNO3, 3; MgSO4.7H2O, 0.5l; KCl, 0.5; FeSO4, 0.01; K2HPO4, 1 and agar, 20 at pH of 6.0.
Background: A growth-free zone around the sample is the usual read-out of agar diffusion tests.

The test system of a further assay is E. coli (DSMZ 1058). As to the kind of experiment: Disk diffusion antimicrobial test, E. coli. It is filed as cell-based. Particulars: Escherichia coli, DSMZ1058, Gram-negative, 20 mg per disc (title), concentration 20 µg (footnote). The procedure:
as §1
The antimicrobial activity of target compounds were evaluated to be in vitro against a variety of pathogenic microorganisms, namely Staphylococcus aureus (ATCC 6538), Bacillus subtilis (ATCC 6633) (Gram-positive bacteria), Pseudomonas areuginosa (ATCC 27853), Escherichia coli (DSMZ 1058) (Gram-negative bacteria), Candida albicans (ATCC 10231), Saccharomyces cerevisiae (ATCC 9080) (Yeast) and Aspergillus niger (NRRL A-326) (Fungi) using the disk diffusion method at a single dose of 20 µg. The microorganisms were served and obtained from the Microbial Biotechnology Department, National Research Center, Giza, Egypt. Amphotericin, amoxicillin and ciprofloxacin were used as reference drugs (Oxoid™ Disks). The tested compounds 11a–c, 12a–c, 13a–i, 14a–i and 15a,b were dissolved in dimethylsulphoxide (DMSO) at a concentration of 1 mg/mL. […]

As for `O=C(O)c1cn(C2CC2)c2cc(N3CCNCC3)c(F)cc2c1=O` [Ciprofloxacin, ciprofloxacin, reference compound], the zone of inhibition at 20 µg/disc in assay [1] stood at 30.2 mm; with E. coli (DSMZ 1058) it was 25.8 mm.

In general, zone of inhibition refers to the size of the clear area around the sample on an inoculated plate. Low readings indicate a weaker effect on the plate, high ones a stronger effect on the plate.
